Data: patent US20140066842A1, “MICRONEEDLE DEVICES AND METHODS” (3M INNOVATIVE PROPERTIES COMPANY, priority 2011, published 2014)

Experiments:
[1] = Discoloration of tissue in which local anesthetic/dose-extending component are administered; type: in vivo; settings: dose-extending component administered with local anesthetic by the microneedle devices
[2] = In vivo delivery of lidocaine to swine skin tissue from coated microneedle array (biopsy, LC/MS/MS); settings: dose-extending component delivered with lidocaine and/or prilocaine by microneedles
Experimental: The in vivo delivery of lidocaine to tissue using the coated microneedle array described above was determined using naïve young adult female mixed breed agricultural swine (Yorkshire X from Midwest Research Swine, Gibbon, Minn.). Swine with minimal skin pigmentation and weighing 10-40 kg were selected for the study. The animals were initially sedated with ketamine (10 mg/kg) and glycopyrrolate (0.011 mg/kg) was intramuscularly administered to reduce salivary, tracheobronchial, and pharyngeal secretions. Hair and dirt on pig skin at the intended application sites were removed prior to application of the microneedle array to minimize complications Skin test sites were selected based on lack of skin pigmentation and skin damage. The hair was first clipped using an electric shaver followed by shaving with a wet multi-blade disposable razor (Schick Xtreme3) and shaving cream (Gillette Foamy Regular) while the animal was under anesthesia.
A light surgical plane of anesthesia was achieved by administering 1.5-5% isoflurane in 1.5-4 L of oxygen by mask. Anesthetized animals were placed in lateral recumbency on insulated table pads. During the experiment, the animals were placed on a heated table to control body temperature at approximately 38° C. Animals were observed continuously until normal recovery was attained. […] The biopsy punch samples were stored at −20° C. until analyzed. […]
Protein precipitation was used to prepare the digested tissue samples for analysis by LC/MS/MS. […] The resulting sample was quantitatively analyzed using a Sciex API3000 triple quadrupole mass spectrometer (Applied Biosystems, Foster City, Calif.) running in positive ion mode using Turbo IonSpray interface to monitor the product ions resulting from the m/z transitions: 235→86.2 for lidocaine and 247→97.5 for mepivacaine. The linear range for lidocaine was 50.0 to 20,000 ng/mL evaluated using 1/x^2 curve weighting. […]

Row | Extension of the local anesthetic dose (tissue levels compared with local anesthetic without the alpha adrenergic agonist) [2] | Structure (SMILES) | Discoloration of the tissue [1]
1 | extend the local anesthetic dose | N=C(N)NC(=O)Cc1c(Cl)cccc1Cl [guanfacine] | without any appreciable tissue discoloration
2 | – | CNC[C@H](O)c1ccc(O)c(O)c1 [epinephrine] | cause discoloration of the tissue, resulting in a blue or bruised appearance
3 | extend the local anesthetic dose | Nc1cc(Cl)c(N=C2NCCN2)c(Cl)c1 [apraclonidine] | without any appreciable tissue discoloration
4 | extend the local anesthetic dose | Clc1cccc(Cl)c1N=C1NCCN1 [clonidine] | without any appreciable tissue discoloration
